In patent publication US20260116910A1, “POLYCYCLIC COMPOUNDS AND METHODS THEREOF” (HEPAITECH (BEIJING) BIOPHARMA TECHNOLOGY CO., LTD., priority 2021, published 2026):
Read-outs that look alike come from different tables or passages of the source.

What was measured:
human FXR (NR1H4) = target: T1, human FXR (NR1H4) (Homo sapiens, UniProt Q96RI1); test: Human FXR (NR1H4) agonist assessment, FXRE-NanoLuc reporter in HEK293T cells; format: cell-based
T1 sequence (Q96RI1 1-476 isoform Q96RI1-1): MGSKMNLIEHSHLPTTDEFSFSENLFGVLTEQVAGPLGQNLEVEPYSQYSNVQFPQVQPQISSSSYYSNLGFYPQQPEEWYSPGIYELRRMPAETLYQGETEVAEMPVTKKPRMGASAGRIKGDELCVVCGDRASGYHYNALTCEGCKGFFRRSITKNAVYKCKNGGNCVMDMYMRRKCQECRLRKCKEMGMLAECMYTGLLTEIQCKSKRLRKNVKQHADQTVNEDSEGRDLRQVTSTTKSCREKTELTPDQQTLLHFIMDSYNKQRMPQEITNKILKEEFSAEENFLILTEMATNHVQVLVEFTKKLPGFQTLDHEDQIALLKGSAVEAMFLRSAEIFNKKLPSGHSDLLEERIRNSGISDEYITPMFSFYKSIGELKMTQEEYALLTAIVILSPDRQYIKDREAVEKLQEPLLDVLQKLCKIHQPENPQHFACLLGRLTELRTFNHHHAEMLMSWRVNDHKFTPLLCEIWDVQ
In short: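 HEK293T cells stably expressing human FXR with an FXRE-NanoLuc reporter were treated with compounds for 24 hr at 37 °C, with 0.01% DMSO as negative control. Medium was read for luminescence after 5 min with coelenterazine. EC50 was fitted by sigmoid to concentration-response data.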

MRGPRX4 = MRGPRX4 (Homo sapiens, UniProt Q96LA9); test: MRGPRX4 activation, Fluo-8 Ca2+ FLIPR assay in HEK293T cells stably expressing MRGPRX4; format: cell-based; parameters: key to MRGPRX4 activation, Average / MRGPRX4 activation, Ave.: fluorescence change dF/F0
Chain of MRGPRX4 (Q96LA9 whole entry): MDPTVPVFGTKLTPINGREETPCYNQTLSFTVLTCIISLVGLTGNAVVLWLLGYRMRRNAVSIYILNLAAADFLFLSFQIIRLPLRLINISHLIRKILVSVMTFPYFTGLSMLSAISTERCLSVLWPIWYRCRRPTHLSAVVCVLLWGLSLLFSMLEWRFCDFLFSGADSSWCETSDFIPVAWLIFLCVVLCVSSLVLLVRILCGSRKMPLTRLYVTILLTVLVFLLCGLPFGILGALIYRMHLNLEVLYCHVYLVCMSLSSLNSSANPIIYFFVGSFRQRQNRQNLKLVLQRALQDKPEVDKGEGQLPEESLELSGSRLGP
In short: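 Cells seeded overnight to >95% confluence, loaded 40-60 min at room temperature with 2 μM Fluo-8 AM, then kept in HHBS. Baseline read 30 s, compound added, signal followed 150 s more.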

[1] = FXR activation, HEK293T FXRE-NanoLuc reporter, 24 hr
[2] = FXR activation, HEK293T FXRE-NanoLuc reporter, 24 hr, read-out: EC50
[3] = MRGPRX4 activation, Ca2+ fluorescence, no activation in tested range reported as III, read-out: Activity (EC50 μM)

Row | Compound | Efficacy (maximum measured induction of NanoLuc, normalized to CDCA set as 100%) (human FXR (NR1H4); [1]) | EC50 (human FXR (NR1H4); [2]) [µM] | MRGPRX4 activation, Average (MRGPRX4; E3-9, Conc. (Log[M]) −4.0) | MRGPRX4 activation, Average (MRGPRX4; E3-9, Conc. (Log[M]) −4.5) | MRGPRX4 activation, Average (MRGPRX4; E3-9, Conc. (Log[M]) −5.0) | MRGPRX4 activation, Average (MRGPRX4; E3-9, Conc. (Log[M]) −5.4) | MRGPRX4 activation, Average (MRGPRX4; E3-9, Conc. (Log[M]) −5.9) | MRGPRX4 activation, Average (MRGPRX4; E3-9, Conc. (Log[M]) −6.4) | MRGPRX4 activation, Average (MRGPRX4; E3-9, Conc. (Log[M]) −6.9) | MRGPRX4 activation, Average (MRGPRX4; E3-9, Conc. (Log[M]) −7.3) | MRGPRX4 activation, Average (MRGPRX4; E3-9, Conc. (Log[M]) −7.8) | MRGPRX4 activation, Average (MRGPRX4; E3-9, Conc. (Log[M]) −8.3) | EC50 (MRGPRX4; [3]) [µM] | further results
1 | CC[C@H]1[C@@H](O)[C@@H]2[C@H](CC[C@]3(C)[C@@H]([C@H](C)CCNS(=O)(=O)c4cc(F)ccc4F)CC[C@@H]23)[C@@]2(C)CCCC[C@@H]12 [6-2] | C (100%<efficacy <=300%) | 1 to 10 | 0.030 | 0.023 | 0.013 | 0.020 | 0.016 | 0.016 | 0.016 | 0.018 | 0.011 | 0.018 | > 100 | –
2 | [2H]C1([2H])CC[C@@]2(C)[C@@H](C1)[C@@H](CC)[C@@H](O)[C@@H]1[C@@H]2CC[C@]2(C)[C@@H]([C@H](C)CCNC(=O)NS(=O)(=O)c3ccc(C(C)(C)CF)cc3)CC[C@@H]12 [12-2] | A (efficacy >400%) | < 1 | – | – | – | – | – | – | – | – | – | – | > 100 | MRGPRX4 activation, Ave. (MRGPRX4; E3-7, Conc. (Log[M]) −4): 0.000; MRGPRX4 activation, Ave. (MRGPRX4; E3-7, Conc. (Log[M]) −4.5): −0.041; MRGPRX4 activation, Ave. (MRGPRX4; E3-7, Conc. (Log[M]) −5): −0.041; MRGPRX4 activation, Ave. (MRGPRX4; E3-7, Conc. (Log[M]) −5.5): −0.054; MRGPRX4 activation, Ave. (MRGPRX4; E3-7, Conc. (Log[M]) −6): −0.041; MRGPRX4 activation, Ave. (MRGPRX4; E3-7, Conc. (Log[M]) −7): −0.027
3 | CCCCS(=O)(=O)NC(=O)NCC[C@@H](C)[C@H]1CC[C@H]2[C@@H]3[C@H](O)[C@H](CC)[C@@H]4CCCC[C@]4(C)[C@H]3CC[C@]12C [5-14] | C (100%<efficacy <=300%) | < 1 | – | – | – | – | – | – | – | – | – | – | > 100 | MRGPRX4 activation, Average (MRGPRX4; E3-6-2, 1st of 6 concentration columns (head not in rows shown)): 0.070; MRGPRX4 activation, Average (MRGPRX4; E3-6-2, 3rd of 6 concentration columns (head not in rows shown)): 0.017; MRGPRX4 activation, Average (MRGPRX4; E3-6-2, 6th of 6 concentration columns (head not in rows shown)): 0.017; MRGPRX4 activation, Average (MRGPRX4; E3-6-2, concentration not given): 0.017
4 | CC[C@H]1[C@@H](O)[C@@H]2[C@H](CC[C@]3(C)[C@@H]([C@H](C)CCNC(=S)NS(=O)(=O)c4ccc(C(C)(C)CF)cc4)CC[C@@H]23)[C@@]2(C)CCC(F)(F)C[C@@H]12 [11-4] | – | < 1 | 0.013 | 0.013 | 0.020 | 0.015 | 0.015 | 0.013 | 0.010 | 0.015 | 0.015 | 0.022 | > 100 | Efficacy (maximum measured induction of NanoLuc, normalized to CDCA set as 100%) (human FXR (NR1H4)): B (key: A: efficacy >400%; B: 300%<efficacy <=400%; C: 100%<efficacy <=300%; D: efficacy <=100%)
5 | CC[C@H]1[C@@H](O)[C@@H]2[C@H](CC[C@]3(C)[C@@H]([C@H](C)CCN=C=S)CC[C@@H]23)[C@@]2(C)CCCC[C@@H]12 [7-1] | C (100%<efficacy <=300%) | – | 0.020 | 0.018 | 0.013 | 0.013 | 0.011 | 0.013 | 0.004 | 0.008 | 0.006 | 0.011 | – | EC50 (human FXR (NR1H4)): > 10 µM; EC50 (MRGPRX4): > 100 µM
6 | CC[C@H]1[C@@H](O)[C@@H]2[C@H](CC[C@]3(C)[C@@H]([C@H](C)CCNS(=O)(=O)C4CC4)CC[C@@H]23)[C@@]2(C)CCCC[C@@H]12 [6-5] | C (100%<efficacy <=300%) | 1 to 10 | 0.025 | 0.020 | 0.018 | 0.020 | 0.018 | 0.016 | 0.018 | 0.016 | 0.020 | 0.018 | > 100 | –
